Measurements as given in patent publication US8846849B2, “Tissue sealants from plasma derived proteins” (Ethicon, Inc., priority 2011, dated 2014).

Assays:
[1] = Hydrolysis of NHS active esters in D2O monitored by NMR; format: physicochemical; conditions: in D2O at 25° C.; for Estimated Time for 95% Hydrolysis / Estimated Time for 10% Hydrolysis: NMR; for k = Constant in % Hydrolysis, y = k Exp(−mx) / m = Relative Rate in % Hydrolysis, y = k Exp(−mx): x = Time
Experimental: The relative reactivity of the active esters was determined by monitoring the rate of hydrolytic degradation in D2O at room temperature by NMR as shown in FIG. 4.
Various NHS active esters shown in FIG. 4 are the 4-Arm-TKHEED-Diglycolate-NHS (T-Dig-NHS or T-DG-N), the 4-Arm-Quadrol-Diglycolate-NHS (Q-Dig-NHS or Q-DG-N), the 4-Arm-PEG-Diglycolate-NHS (PEG-Dig-NHS or PEG-DG-N), the 4-Arm-TKHEED-Glutarate-NHS (T-Glut-NHS or T-Glut-N), and the 2-Arm-PEG-Diacid-NHS (PEG-NHS). It was observed that diglycolate-containing esters are the fastest hydrolyzing active esters, meaning to hydrolyze more than 95% in about 30 to 60 minutes irrespective of the core structure. […] These compounds appear to hydrolyze only about 10% or less in about 80 to 100 minutes.
Hydrolysis degradation parameters are summarized in Table 1 qualitatively from the chart in FIG. 4. It is observed that the Relative Rate, m, (in the exponential equation) for all the Diglycolate-NHS esters are within about 20% of each other. However, the rates are much faster than the others; for example, T-Dig-NHS (or T-DG-N) is 144 times faster than T-Glut-NHS, and 98 times faster than PEG-NHS. The degradation profiles of cross-linker A (T-DG-NHS), B (Q-Dig-NHS) and C (PEG-Dig-NHS) correspond to the instant invention, while the crosslinking agent D (T-Glut-NHS) and E (PEG-NHS) correspond to control groups.

[2] = molecular target: T1, fibrinogen (BAC-2) solution (Homo sapiens, UniProt P02671+P02675+P02679); assay: Qualitative rate of gelation of BAC-2 (fibrinogen) solution with active ester cross-linker; conditions: weight ratio cross-linker to fibrinogen 1:1, fibrinogen approx. 70 mg/ml, room temperature
T1 construct: Powdered BAC-2, a blood plasma derived product was obtained from Omrix BioPharmaceuticals; purchased Omrix BioPharmaceuticals; host or cells: blood plasma
T1 sequence (P02671 20-629 limits assumed): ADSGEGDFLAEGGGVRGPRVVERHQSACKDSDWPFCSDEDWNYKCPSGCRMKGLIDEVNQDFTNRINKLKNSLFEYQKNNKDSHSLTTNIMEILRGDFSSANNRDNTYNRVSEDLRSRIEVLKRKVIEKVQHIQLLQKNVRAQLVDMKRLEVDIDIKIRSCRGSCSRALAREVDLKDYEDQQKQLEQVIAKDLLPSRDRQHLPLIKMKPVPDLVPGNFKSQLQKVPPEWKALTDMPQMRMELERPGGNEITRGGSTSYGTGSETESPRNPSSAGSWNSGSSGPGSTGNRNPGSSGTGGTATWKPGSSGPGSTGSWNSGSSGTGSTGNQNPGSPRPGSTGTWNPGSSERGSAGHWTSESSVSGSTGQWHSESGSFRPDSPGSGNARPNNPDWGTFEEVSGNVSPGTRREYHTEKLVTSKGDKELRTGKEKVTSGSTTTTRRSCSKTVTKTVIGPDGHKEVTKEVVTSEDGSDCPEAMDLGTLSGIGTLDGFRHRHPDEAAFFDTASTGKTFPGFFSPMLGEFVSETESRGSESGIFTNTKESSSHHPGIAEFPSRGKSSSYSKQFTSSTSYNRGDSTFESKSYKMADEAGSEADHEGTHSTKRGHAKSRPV
T1 sequence (P02675 31-491): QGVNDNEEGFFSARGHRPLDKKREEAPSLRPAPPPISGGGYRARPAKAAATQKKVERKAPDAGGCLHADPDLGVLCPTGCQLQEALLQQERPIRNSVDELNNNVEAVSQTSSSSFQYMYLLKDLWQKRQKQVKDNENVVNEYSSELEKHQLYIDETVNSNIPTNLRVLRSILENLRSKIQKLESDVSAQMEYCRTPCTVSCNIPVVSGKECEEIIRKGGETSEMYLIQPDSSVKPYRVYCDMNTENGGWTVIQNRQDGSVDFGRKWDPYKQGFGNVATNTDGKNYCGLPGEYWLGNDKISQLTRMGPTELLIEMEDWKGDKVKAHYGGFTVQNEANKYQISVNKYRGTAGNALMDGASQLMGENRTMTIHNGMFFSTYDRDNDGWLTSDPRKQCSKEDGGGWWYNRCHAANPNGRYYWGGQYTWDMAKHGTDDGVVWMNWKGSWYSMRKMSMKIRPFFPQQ
T1 sequence (P02679 27-433 limits assumed): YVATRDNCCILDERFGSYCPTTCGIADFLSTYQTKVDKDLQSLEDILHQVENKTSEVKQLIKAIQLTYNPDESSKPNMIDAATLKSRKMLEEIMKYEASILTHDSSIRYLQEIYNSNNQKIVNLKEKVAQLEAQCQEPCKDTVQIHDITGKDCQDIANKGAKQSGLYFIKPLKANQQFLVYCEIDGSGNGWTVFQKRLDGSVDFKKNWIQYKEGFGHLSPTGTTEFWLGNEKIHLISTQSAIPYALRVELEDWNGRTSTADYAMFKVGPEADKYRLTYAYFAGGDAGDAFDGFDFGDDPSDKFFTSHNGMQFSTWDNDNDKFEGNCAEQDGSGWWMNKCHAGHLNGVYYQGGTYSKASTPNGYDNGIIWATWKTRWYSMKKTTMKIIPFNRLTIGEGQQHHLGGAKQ
Experimental: Sealants based on the inventive compositions were prepared by using an aqueous solution of BAC-2 (about 7% fibrinogen, or 70 mg/ml) where the crosslinking agent in the form of a powder was added at a selected composition and mixed well for 1 to 2 minutes up to gellation.
Crosslinking agents A, B, C correspond to the instant invention, while D and E correspond to control groups. The solid NHS ester, preferably in a powder form, was added to the BAC-2 solution at room temperature in a test tube at a weight ratio of 1 to 1 for active ester to fibrinogen, and mixed well. The time for gelation, defined qualitatively as the point when the BAC-2 solution in the test tube no longer flowed, was noted and recorded as shown in Table 2.
Sealants were prepared using an aqueous solution of fibrinogen (about 7% solution), where powder of either T-DG-N or PEG-DG-N was added at a selected composition based on the fibrinogen content. […] The in vitro rate of degradation of the hydrogel (or sealant) was determined in an enzymatic medium of plasmin at a concentration of 3.3 microgram/ml by determining the % clot remaining by gravimetric method after a given duration of exposure.

[3] = Water solubility of diglycolate-NHS esters; format: physicochemical
[4] = Hydrolytic degradation of sealant in de-ionized water at 37° C. by pH profiling; format: physicochemical; conditions: deionized water 37° C., constant pH 7.4
Experimental: Sealant with ester links undergoing hydrolytic degradation in PBS at 37° C. was evaluated by the % weight loss method. Sealant degradation in de-ionized (DI) water causes the pH level of the solution to […], which can be titrated by addition of a basic compound to maintain a constant pH of 7.4 at 37° C. until such time that no more basic compound was needed to maintain a neutral solution; the total time for titration was noted.
As the Diglycolate-NHS/BAC-2 system is a hydrogel of fibrinogen with ester based cross-links, its degradation was followed in the pH profiler of de-ionized water at 37° C., where a base was added to neutralize the acid formed upon ester hydrolysis with time, to maintain a constant neutral pH. Cross-linker weight % was varied based on fibrinogen content.

Row | Compound | Estimated Time for 95% Hydrolysis [1] | k = Constant in % Hydrolysis, y = k Exp(−mx) [1] | m = Relative Rate in % Hydrolysis, y = k Exp(−mx) [1] | Qualitative observation of Gelation [2] | water solubility [3] | Estimated Time for 10% Hydrolysis [1] | hydrolysis rate, times faster than PEG-NHS [1] | hydrolysis rate, times faster than T-Glut-NHS [1] | Longevity of sealant, Avg. ([4]; NHS cross-linker 30 wt % based on fibrinogen) | Longevity of sealant, Avg. ([4]; NHS cross-linker 50 wt % based on fibrinogen) | Longevity of sealant, Avg. ([4]; NHS cross-linker 60 wt % based on fibrinogen)
1 | 4-Arm-Quadrol-Diglycolate-NHS [Q-DG-N] | 60 min | 107 | 0.084 | 1 to 2 min | about 25% |  |  |  |  |  | 
2 | 4-Arm-TKHEED-Glutarate-NHS [T-Glut-NHS, reference compound] |  | 65 | 0.00072 | 30 to 60 min |  | 100 min |  |  |  |  | 
3 | O=C(CCOCCOCCOCCOCCOCCOCCOCCOCCOCCC(=O)ON1C(=O)CCC1=O)ON1C(=O)CCC1=O [PEG-NHS, Bis-dPEG(9)-NHS ester, reference compound] |  | 98 | 0.00106 | 15 to 30 min |  | 80 min |  |  |  |  | 
4 | O=C(COCC(=O)ON1C(=O)CCC1=O)OCCN(CCOC(=O)COCC(=O)ON1C(=O)CCC1=O)CCN(CCOC(=O)COCC(=O)ON1C(=O)CCC1=O)CCOC(=O)COCC(=O)ON1C(=O)CCC1=O [T-DG-N, 4-Arm TKHEED-tetra Diglycolate-tetra-NHS ester] | 30 min | 62 | 0.104 | 1 to 2 min | more than 85% |  | 98 times | 144 times | 2.7 days | 7.1 days | 16.7 days
